According to ChEMBL document CHEMBL1201862, “PubChem BioAssay data set” (2004):
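Method: 48-hour compound exposure of cells in 96-well plates, five concentrations, linear interpolation of endpoints. At the GI50, growth is halved.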 Active and inactive are the calls of the source. Cut-off read from the data, not from the text of the source: active = GI50 up to about 1.1 µM and inactive = higher.

What was measured:
Experiment in all cases: NCI tumour cell line growth inhibition, 48 h
A498 = system: A498
EKVX = system: EKVX
HCT-116 = system: HCT-116
HOP-62 = system: HOP-62
HT-29 = system: HT-29
K562 = system: K562
KM-20L2 = system: KM-20L2
NCI-H23 = system: NCI-H23
NCI-H522 = system: NCI-H522
OVCAR-5 = system: OVCAR-5
SK-MEL-28 = system: SK-MEL-28
SNB-75 = system: SNB-75
SW-620 = system: SW-620
UACC-62 = system: UACC-62
UO-31 = system: UO-31
TK-10 = system: TK-10

Measured: GI50

CCCCCCCCCCCC1CCCC(C)N1 (stereo unspecified)
inactive: A498 51.5 µM | EKVX 47.3 µM | HCT-116 36.8 µM | HOP-62 43.3 µM | HT-29 20.6 µM | K562 19.1 µM | KM-20L2 29 µM | NCI-H23 61.9 µM | NCI-H522 35.9 µM | OVCAR-5 80 µM | SK-MEL-28 76.6 µM | SNB-75 65.8 µM | SW-620 58.3 µM | UACC-62 36.7 µM | UO-31 41 µM

COc1cc(CCc2ccc(OCCN(C)C)cc2)cc(OC)c1OC
inactive: A498 76 µM | EKVX > 100 µM | HCT-116 60.4 µM | HOP-62 84.1 µM | HT-29 34.2 µM | K562 39.5 µM | KM-20L2 76.9 µM | NCI-H522 83.8 µM | OVCAR-5 33.8 µM | SK-MEL-28 > 100 µM | SNB-75 45.1 µM | SW-620 > 100 µM | TK-10 78.9 µM | UACC-62 > 100 µM | UO-31 49.9 µM

C[C@@]12CC[C@H]3[C@@H]4CCC(=O)N[C@@]4(C)CC[C@@H]3[C@@]1(C)CC[C@H](OC(=O)Cc1ccc(N(CCCl)CCCl)cc1)C2
inactive: A498 18.7 µM | EKVX 16.4 µM | HCT-116 16.4 µM | HOP-62 16.8 µM | HT-29 14.7 µM | K562 19.5 µM | KM-20L2 18.2 µM | NCI-H23 15.1 µM | NCI-H522 17.7 µM | OVCAR-5 17.3 µM | SK-MEL-28 18.4 µM | SNB-75 18.3 µM | SW-620 18.2 µM | UACC-62 15.5 µM | UO-31 17.8 µM

NC(=O)c1ncn(C2OC(CO)C(O)C2O)c1NC(=S)NC(=O)c1ccccc1 (stereo unspecified)
inactive: A498 > 100 µM | EKVX > 100 µM | HCT-116 > 100 µM | HOP-62 > 100 µM | HT-29 > 100 µM | K562 > 100 µM | KM-20L2 > 100 µM | NCI-H23 > 100 µM | NCI-H522 > 100 µM | OVCAR-5 > 100 µM | SK-MEL-28 > 100 µM | SNB-75 > 100 µM | SW-620 > 100 µM | TK-10 > 100 µM | UACC-62 > 100 µM | UO-31 > 100 µM

Cn1c(=O)nc2n(-c3ccc(F)cc3)c3ccccc3nc-2c1=O
inactive: A498 32.6 µM | EKVX 16.4 µM | HCT-116 17.5 µM | HOP-62 46.7 µM | HT-29 14.1 µM | K562 19.9 µM | KM-20L2 19.8 µM | NCI-H23 20 µM | NCI-H522 16.1 µM | OVCAR-5 24.3 µM | SNB-75 31 µM | SW-620 18.8 µM | TK-10 26.5 µM | UACC-62 12.2 µM | UO-31 38.4 µM
